≈ marks a conversion by molar mass, not a printed value.
Key:
E. coli = assay: Disk diffusion antibacterial test; assay type: cell-based, Escherichia coli; design: key: —: inactive at concentration 50 mM; conditions: disc diffusion test, concentration 50 mM
Experimental: (§1) Antibacterial effects of spiro[indeno[2,1-c]pyridazine-9,4′-pyran]-3′,4-dicarbonitrile derivatives 5a–j were evaluated in vitro by using disk diffusion method against Gram-positive (S. aureus) and Gram negative (E. coli). The diameter of inhibition zone correlates to the sensitivity of a bacterium to an antibacterial agent. […] E. coli was resistant against all compounds tested (Table 2). Tetracycline and DMSO were used as positive control and negative control respectively. Next, the active compounds were analysed using MIC assay to determine the lowest concentration for inhibition. […] It seems due to the difference in structure of bacterial cell wall (i.e., the presence of outer membrane with lipid, lipopolysaccharide, and lipoprotein content in Gram negative bacteria), E. coli was resistant against the related synthetic compounds.
(§2) Antibacterial activity of the prepared synthetic compounds against the Gram-negative bacteria (E. coli; ATCC: 15922) and the Gram-positive bacteria (S. aureus; PTCC: 1112, International no. ATCC6538P) were examined by disk diffusion assay. Bacterial cultures were obtained from Persian Type Culture Collection, Tehran, Iran (PTCC). Isolated pure colonies from fresh grown bacteria were transferred from the plates into sterile normal saline solution and it was vortexed to form bacterial homogenous suspensions. The turbidity was then adjusted to 0.5 McFarland standard units, and the suspensions were poured over Mueller–Hinton agar (MHA) plates. Sterile filter paper disks were placed over these plates. The sterile disks were impregnated with the tested compounds. Positive control (tetracycline) and negative control ([…]) were used. To determine MIC, the concentrations of tested substance were prepared within the range from 30–5 mM. Incubate in incubator at 37 °C in 24 h for bacteria (Table 2).

MCF-7 cells = assay: MTT cytotoxicity assay; assay type: cell-based; conditions: Homo sapiens, MCF7, 48 h
Experimental: (§3) At first, in order to compare anti-cancer properties, the synthesized compounds 5a–j were evaluated against A549 cells, MCF-7 cells, A375 cells, PC3 cells, LNCaP cells and HDF cells lines using the MTT colorimetric assay. The activity is expressed as 50% growth inhibitory concentration (IC50) values at 48 h. We used DMSO (1%) as negative control and Etoposide as positive control.
(§4) Human non-small-cell lung cancer A549 cells, human breast cancer MCF-7 cells, human malignant melanoma cells (A375), human prostate cancer cells (PC3 cells, LNCaP cells) and normal cells HDF (human dermal fibroblast) were received from Pasture Institute, Tehran, Iran. MCF-7 cells were grown in RPMI 1640 medium, A549 cells, A375 cells, PC3 cells, LNCaP cells and HDF cells were grown in DMEM medium. All media contain 10% fetal bovine serum (FBS), penicillin G, streptomycin 100 μg mL^−1 and 1% L-glutamine. The cells were cultured and incubated under humidified 5% CO2 atmosphere at 37 °C.
(§5) The effect of compounds treatment on the viability of cancer cell lines was measured by (3-(4,5-dimethylthiazol-2-yl)-2,5-diphenyl tetrazolium bromide or MTT) assay (MTT assay kit, Bio IDEA, CatNo: BI1017, Iran) based on the ability of live cells to cleave the tetrazolium ring to a molecule that absorb at […] as per the manufacturer's instructions.[33] Etoposide (was kindly provided by Dr A. Foroumadi, Tehran medical Science University, Iran) and dimethyl sulfoxide (or DMSO) was used as positive and negative controls, respectively.[34] Briefly, cells were plated in 96-well culture plates (5 × 10^3 cells per well). After 24 h incubation, the cells were treated with different concentrations of the compounds. After 48 h at 37 °C, the medium was removed and 100 μL of MTT reagent (1 mg mL^−1) was added to each well, and cells were further incubated at 37 °C for 4 h. The MTT solution was removed, 50 μL of DMSO was added to each well to dissolve formazan crystals, and the plates were gently shaken for 10 minutes, followed by reading with an ELISA plate reader (BiotekELx 800, USA). The 50% inhibition concentration (IC50) was defined as the concentration that inhibited cell proliferation by 50% when compared to DMSO treated cells (as negative control).

PC3 cells = assay: MTT cytotoxicity assay; assay type: cell-based; conditions: Homo sapiens, PC-3, 48 h
Experimental: as §3, §4, §5

A375 cells = assay: MTT cytotoxicity assay; assay type: cell-based; conditions: Homo sapiens, A-375, 48 h
Experimental: as §3, §4, §5

A549 cells = assay: MTT cytotoxicity assay; assay type: cell-based; conditions: Homo sapiens, 48 h
Experimental: as §3, §4, §5

LNCaP cells = assay: MTT cytotoxicity assay; assay type: cell-based; conditions: Homo sapiens, 48 h
Experimental: as §3, §4, §5

HDF cells = assay: MTT cytotoxicity assay; assay type: cell-based; conditions: 48 h, normal cells (human dermal fibroblast)
Experimental: as §3, §4, §5

S. aureus [1] = assay: Disk diffusion antibacterial test; assay type: cell-based, Staphylococcus aureus; design: key to Inhibition zone (mm) S. aureus: —: inactive at concentration 50 mM; conditions: for Inhibition zone (mm) S. aureus: disc diffusion test, concentration 50 mM; for Sensitivity of S. aureus to compound: there called agar dilution method
Experimental: as §1, §2

S. aureus [2] = assay: MIC determination; assay type: cell-based; conditions: Staphylococcus aureus; read-out: MICs (mM) S. aureus
Experimental: as §1, §2

Compound | Inhibition zone (mm) E. coli (E. coli) | IC50 (MCF-7 cells) | IC50 (PC3 cells) | IC50 (A375 cells) | IC50 (A549 cells) | IC50 (LNCaP cells) | IC50 (HDF cells) | melting point | Inhibition zone (mm) S. aureus (S. aureus [1]) | MIC (S. aureus [2]) | Sensitivity of S. aureus to compound (S. aureus [1])
CC1(C)CC(=O)C2=C(C1)OC(N)=C(C#N)C21c2ccccc2-c2c1n[nH]c(=O)c2C#N (centres unmarked) [5d, 2-Amino-7,7-dimethyl-3′,5-dioxo-2′,3′,5,6,7,8-hexahydrospiro[chromene-4,9′-indeno[2,1-c]pyridazine]-3,4′-dicarbonitrile] | — | > 100 µM | > 100 µM | > 100 µM | > 100 µM | > 100 µM | > 100 µM | 315 to 318 °C | — |  | 
N#CC1=C(N)Oc2c(c(=O)oc3ccccc23)C12c1ccccc1-c1c2n[nH]c(=O)c1C#N (centres unmarked) [5i, 2′-Amino-3,5′-dioxo-2,3-dihydro-5′H-spiro[indeno[2,1-c]pyridazine-9,4′-pyrano[3,2-c]chromene]-3′,4-dicarbonitrile] | — | > 100 µM | > 100 µM | > 100 µM | > 100 µM | > 100 µM | > 100 µM | 308 to 310 °C |  | 5 mM (≈ 2170 µg/mL) | sensitive
N#CC1=C(N)Oc2[nH]c(=S)[nH]c(=O)c2C12c1ccccc1-c1c2n[nH]c(=O)c1C#N (centres unmarked) [5c, 7′-Amino-3,4′-dioxo-2′-thioxo-1′,2,2′,3,3′,4′-hexahydrospiro[indeno[2,1-c]pyridazine-9,5′-pyrano[2,3-d]pyrimidine]-4,6′-dicarbonitrile] | — | > 100 µM | > 100 µM | > 100 µM | > 100 µM | > 100 µM | > 100 µM | 305 to 307 °C |  | 50 mM (≈ 20800 µg/mL) | sensitive
COC(=O)c1nn(-c2ccccc2)c2c1C1(C(C#N)=C(N)O2)c2ccccc2-c2c1n[nH]c(=O)c2C#N (centres unmarked) [5h, Methyl 6′-amino-4,5′-dicyano-3-oxo-1′-phenyl-2,3-dihydro-1′H-spiro[indeno[2,1-c]pyridazine-9,4′-pyrano[2,3-c]pyrazole]-3′-carboxylate] | — | > 100 µM | > 100 µM | > 100 µM | > 100 µM | > 100 µM | > 100 µM |  | — |  | 
Cc1n[nH]c2c1C1(C(C#N)=C(N)O2)c2ccccc2-c2c1n[nH]c(=O)c2C#N (centres unmarked) [5f, 6′-Amino-3′-methyl-3-oxo-2,3-dihydro-1′H-spiro[indeno[2,1-c]pyridazine-9,4′-pyrano[2,3-c]pyrazole]-4,5′-dicarbonitrile] | — | > 100 µM | > 100 µM | > 100 µM | > 100 µM | > 100 µM | > 100 µM |  |  | 5 mM (≈ 1850 µg/mL) | sensitive
COc1cc([C@@H]2c3cc4c(cc3[C@@H](O[C@@H]3O[C@@H]5CO[C@@H](C)O[C@H]5[C@H](O)[C@H]3O)[C@H]3COC(=O)[C@H]23)OCO4)cc(OC)c1O [Etoposide, reference compound] |  | 30 ± 0.011 µM | 40 ± 0.062 µM | 25.31 ± 0.018 µM | 60 ± 0.015 µM | 90 ± 0.031 µM | > 100 µM |  |  |  | 
Cc1nn(-c2ccccc2)c2c1C1(C(C#N)=C(N)O2)c2ccccc2-c2c1n[nH]c(=O)c2C#N (centres unmarked) [5e, 6′-Amino-3′-methyl-3-oxo-1′-phenyl-2,3-dihydro-1′H-spiro[indeno[2,1-c]pyridazine-9,4′-pyrano[2,3-c]pyrazole]-4,5′-dicarbonitrile] | — | > 100 µM | > 100 µM | > 100 µM | > 100 µM | > 100 µM | > 100 µM |  |  | 10 mM (≈ 4450 µg/mL) | sensitive
Cc1nn(-c2cccc(Cl)c2)c2c1C1(C(C#N)=C(N)O2)c2ccccc2-c2c1n[nH]c(=O)c2C#N (centres unmarked) [5g, 6′-Amino-1′-(3-chlorophenyl)-3′-methyl-3-oxo-2,3-dihydro-1′H-spiro[indeno[2,1-c]pyridazine-9,4′-pyrano[2,3-c]pyrazole]-4,5′-dicarbonitrile] | — | > 100 µM | > 100 µM | > 100 µM | > 100 µM | > 100 µM | > 100 µM |  |  | 5 mM (≈ 2400 µg/mL) | sensitive
N#CC1=C(N)Oc2[nH]c(=O)[nH]c(=O)c2C12c1ccccc1-c1c2n[nH]c(=O)c1C#N (centres unmarked) [5b, 7′-Amino-2′,3,4′-trioxo-1′,2,2′,3,3′,4′-hexahydrospiro[indeno[2,1-c]pyridazine-9,5′-pyrano[2,3-d]pyrimidine]-4,6′-dicarbonitrile] | — | > 100 µM | > 100 µM | > 100 µM | > 100 µM | > 100 µM | > 100 µM | 322 to 324 °C |  | 5 mM (≈ 2000 µg/mL) | sensitive
N#CC1=C(N)OC2=C(C(=O)c3ccccc32)C12c1ccccc1-c1c2n[nH]c(=O)c1C#N (centres unmarked) [5j, 2-Amino-3′,5-dioxo-2′,3′-dihydro-5H-spiro[indeno[1,2-b]pyran-4,9′-indeno[2,1-c]pyridazine]-3,4′-dicarbonitrile] | — | > 100 µM | > 100 µM | > 100 µM | > 100 µM | > 100 µM | > 100 µM | 298 to 300 °C | — |  | 
